This is an account of results in patent publication US6428820B2, “Extracts of Hypericum perforatum and formulations containing them” (Indena S.p.A., priority 1999, dated 2002).

Converted amounts (≈) assume the structure as drawn.

One assay has as its system serotonin (5-HT) uptake. As to the kind of experiment: Inhibition of 3H 5-HT (serotonin) uptake. In kind it is biochemical. The settings on record: inhibition of 3H 5-HT uptake.
The subject of the next assay is dopamine (DA) uptake. The settings on record: inhibition of 3H DA uptake.

For the molecule `Cc1cc(O)c2c(=O)c3c(O)cc(O)c4c5c(O)cc(O)c6c(=O)c7c(O)cc(CO)c8c1c2c(c34)c(c65)c78` [Pseudo-hypericin], the “IC50 3H-5 HT uptake” value in the assay with serotonin (5-HT) uptake was 27.0 ± 1.1020 µg/mL (≈ 51.9 µM). Moreover, the “IC50 3H DA uptake” value with dopamine (DA) uptake worked out at 1.40 ± 0.13 µg/mL (≈ 2.69 µM).
In the same order, the values of Hyperforin are 4.75 ± 0.79 µg/mL and 1.54 ± 0.23 µg/mL.
